Laboratory results: patent EP4781984A1 (Beyang Therapeutics Co., Ltd., priority 2023, dated 2025)
≈ marks a conversion by molar mass, not a printed value. One block for each compound: values may come before it.

Legend:
melanin = assay: Compound binding to melanin; assay type: in vitro ADME; settings: cuttlefish (Sepia officinalis), melanin suspension (1 mg/mL), percentage of free drug (not bound to melanin), 2 µM compound, melanin 1 mg/mL in PBS pH 7.4, 37°C
In short: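 Compound at 2 µM final incubated with 1 mg/mL Sepia melanin in PBS pH 7.4, 37°C, 2 hours with shaking; blank in PBS with 0.1% BSA. Supernatant concentration by LC-MS/MS. Fb = 100 − (Ctest/Ccontrol) × 100%.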

[1] = Ophthalmic formulations based on in situ salt formation technology: composition and state (Example 8); assay type: physicochemical; settings: for State Description: pH ~7; for State Description: pH / State Description: state: Table 17: 5 mg/mL, HP-β-CD 15, Poloxamer 188 1, Gelrite 0.15, Tris-HCl (pH 6.8) 25mM
Text: In the following ophthalmic formulation preparation examples, "solution" refers to a clear, transparent liquid without visible insoluble matter. "Near-clear solution" refers to a liquid that appears close to a solution upon visual observation but may contain a small amount of insoluble particles or have a slightly opaque color. "Suspension" refers to a liquid that is visibly turbid or opaque. "Gel" refers to a completely or partially gel-like solid.
Example 8: Ophthalmic Formulation Based on In Situ Salt Formation Technology
Therefore, by preparing ophthalmic formulation compositions based on in situ salt formation technology, the solubility of the compounds can be further improved.
According to the formulation composition shown in the table below, weigh the compound powder, add 50% of the total volume (v/v) of a 30% (w/v) aqueous solution of hydroxypropyl-β-cyclodextrin (containing surfactant), and disperse by sonication; next, add an appropriate volume of pH regulator and sonicate until clear; then, add an equal volume of buffer containing solubilizer, viscosity modifier, etc., for dilution, and immediately vortex to mix; finally, add an appropriate volume of alkali regulator to adjust the solution pH to approximately 7, to prepare an eye drop formulation.
Using the in situ salt formation method, the compound is first dispersed in a solution containing Hydroxypropyl-β-cyclodextrin, then different acids are added to adjust the pH to 3-5, allowing the compound to fully or nearly fully dissolve, followed by adding the remaining components and adjusting the pH to approximately 7. […] Based on the visual dissolution effect after acid addition, methanesulfonic acid, acetic acid, and lactic acid were preliminarily selected as pH regulators. The preliminarily selected acids were used in subsequent tests with higher compound concentrations. Table 18 Formulation Composition and State

[2] = Thermodynamic solubility test; assay type: physicochemical; settings: buffer solution, aqueous buffer, thermodynamic from solid; thermodynamic solubility, room temperature, 8 hours shaking; buffers pH 2.0, 6.5, 7.4 used, pH of the tabulated value not given
In short: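 Samples sonicated 10 min, shaken 8 h at room temperature, re-sonicated and centrifuged at 13000 rpm for 15 min. Supernatant recentrifuged and analysed by LC-MS, with concentrations quantified against a 3–5 point calibration curve.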

[3] = Effect of gellan gum on formulation viscosity and viscosity change after adding simulated tear fluid (Example 10); assay type: physicochemical; settings: compound 5 mg/mL, Gellan Gum 0.15% w/v; for Viscosity after Adding STF: simulated tear fluid added, volume ratio 3.6:1
Description: Example 10: Effect of Gellan Gum on Formulation Viscosity and Viscosity Change after Adding Simulated Tear Fluid
This example investigates the effect of gellan gum on formulation viscosity and simulates the scenario of eye drop instillation by adding simulated tear fluid to the formulation at a volume ratio of 3.6:1. Table 23 Effect of Gellan Gum on Formulation Viscosity
The ophthalmic drop formulation in this example was prepared using the preparation method from Example 8 (i.e., one type of Formulation II of the present invention). Except for compound , the other components in the formulation are: 30% Hydroxypropyl-β-cyclodextrin solution (containing 2% polyoxyethylene castor oil EL): 50 mM Tris(hydroxymethyl)aminomethane-Hydrochloric Acid Buffer (containing 2% Poloxamer 188, 0.3% Gellan Gum Gelrite, w/v) = 50:50 v/v, adjusted to pH using Methanesulfonic Acid and Tris(hydroxymethyl)aminomethane.

[4] = 0.05M Fumaric Acid 10, 0.5M Tris 0.5
[5] = 1M Acetic Acid 1, 0.5M Tris 0.5
[6] = 1M Lactic Acid 1, 0.5M Tris 0.5
[7] = 1M Maleic Acid 1, 0.5M Tris 1.5
[8] = 1M Methanesulfonic Acid 1, 0.5M Tris 0.5
[9] = 1M Tartaric Acid 1, 0.5M Tris 1

fraction unbound at 2 h, 2 µM (melanin): 0.01 to 0.05
State Description ([1]; Table 21, Compound 10 mg/ml, 1M Methanesulfonic Acid 1%, Polyoxyethylene castor oil EL 1%, no 0.5M Tris): near-clear solution
State Description ([1]; Table 21, Compound 20 mg/ml, 1M Methanesulfonic Acid 4%, Polyoxyethylene castor oil EL 1%, 0.5M Tris 1%): near-clear solution
solubility at 8 h [2]: 564 µg/mL (≈ 1060 µM)
Formulation Viscosity ([3]; Test temperature 25 °C): 23.27 mPa.s
Viscosity after Adding STF ([3]; Test temperature 25 °C): 27.26 mPa.s
Formulation Viscosity ([3]; Test temperature 37 °C): 9.53 mPa.s
Viscosity after Adding STF ([3]; Test temperature 37 °C): 24.06 mPa.s
Structure (SMILES): O=C(NC1CC1)c1cccc(F)c1Sc1ccc2c(/C=C/c3cnn(CCCN4CCCC4)c3)n[nH]c2c1 [Compound I-44, N-cyclopropyl-3-fluoro-2-({3-[(E)-2-{1-[3-(pyrrolidin-1-yl)propyl]-1H-pyrazol-4-yl}ethenyl]-1H-indazol-6-yl}sulfanyl)benzamide]

fraction unbound at 2 h, 2 µM (melanin): 0.01 to 0.05
State Description ([1]; Compound 20 mg/ml, 1M Methanesulfonic Acid 4%, Polyoxyethylene castor oil EL 1%, 0.5M Tris 1%): solution
State Description: pH [1, 4]: ~7
State Description: state [1, 4]: suspension
State Description: pH [1, 5]: ~7
State Description: state [1, 5]: near-clear solution
State Description: pH [1, 6]: ~7
State Description: state [1, 6]: near-clear solution
State Description: pH [1, 7]: ~7
State Description: state [1, 7]: near-clear solution
State Description: pH [1, 8]: ~7
State Description: state [1, 8]: near-clear solution
State Description: pH [1, 9]: ~7
State Description: state [1, 9]: near-clear solution
solubility at 8 h [2]: 319 µg/mL (≈ 635 µM)
Formulation Viscosity ([3]; Test temperature 25 °C): 19.01 mPa.s
Viscosity after Adding STF ([3]; Test temperature 25 °C): 24.19 mPa.s
Formulation Viscosity ([3]; Test temperature 37 °C): 7.97 mPa.s
Viscosity after Adding STF ([3]; Test temperature 37 °C): 21.95 mPa.s
Structure (SMILES): CCNC(=O)c1cc(F)ccc1Sc1ccc2c(/C=C/c3ccc(CN4CCCC4)cn3)n[nH]c2c1 [Compound I-97, N-ethyl-5-fluoro-2-({3-[(E)-2-{5-[(pyrrolidin-1-yl)methyl]pyridin-2-yl}ethenyl]-1H-indazol-6-yl}sulfanyl)benzamide]
State Description ([1]; Compound 10 mg/ml, 1M Acetic Acid 2%, no Polyoxyethylene castor oil EL, 0.5M Tris 1%): pH ~7, near-clear solution, with opalescence
State Description ([1]; Compound 10 mg/ml, 1M Lactic Acid 2%, no Polyoxyethylene castor oil EL, 0.5M Tris 1%): pH ~7, near-clear solution, with opalescence
State Description ([1]; Compound 10mg/ml, 1M Methanesulfonic Acid 2%, no Polyoxyethylene castor oil EL, 0.5M Tris 1%): pH ~7, near-clear solution, with opalescence
State Description ([1]; Compound 15 mg/ml, 1M Methanesulfonic Acid 3%, no Polyoxyethylene castor oil EL, 0.5M Tris 1%): pH ~7, near-clear solution, with opalescence
State Description ([1]; Compound 20 mg/ml, 1M Methanesulfonic Acid 4%, no Polyoxyethylene castor oil EL, 0.5M Tris 0.5%): pH ~7, near-clear solution, with opalescence
